Consider one compound from patent US20150292032A1, “TREATMENT OF CANCER BY TARGETING QUIESCENT CANCER CELLS” (FELICITEX THERAPEUTICS, INC., priority 2012, published 2015).

Assay [1] relates to Panc-1 pancreatic cancer cells. Put plainly: Quiescent (G0) cell fraction in serum-starved Panc-1 cells, two-parameter flow cytometry (Pyronin Y / Hoechst). Format: cell-based, human. As to the method:
Panc-1 cells were forced into the quiescent state by serum deprivation for 48 hours. Panc-1 were cultured in DMEM+0.2% FBS for 48 hours. Next the cells were switched to fresh media DMEM+10% FBS (panel A) or to fresh media DMEM+1-% FBS supplemented with 0.25 μM DYRK1B inhibitor R (panel B). As a result of this serum deprivation, 42% of cells were identified in G0 quiescent state, as depicted in FIG. 5A. The percentage of quiescent cells was identified by flow cytometry FACS analysis.
Next, a DYRK1B small molecule inhibitor R, pictured in FIG. 7, was applied to inhibit the activity of DYRK1B kinase, and the percentage of quiescent cells was again analyzed. […] Upon inhibition of the activity of DYRK1B kinase, pancreatic cancer cells left the G0 quiescent state and progressed into cell cycle. While the number of quiescent cells had been reduced to 27% in the presence of DYRK1B inhibitor R, the number of cells in S-phase of cell cycle doubled (13%) as compared to control cells (6% in FIG. 5A). DYRK1B kinase activity was necessary for Panc-1 pancreatic cancer cells to accumulate in a quiescent state. The distribution of cellular population within the cell cycle (i.e. G0, G1, S and G2/M populations) was analyzed by two-parameter flow cytometry. Specifically, the incorporation of Pyronin Y and Hoechst staining correlated to RNA and DNA content distribution, respectively. (Ewton, D. Z., Hu, J., Vilenchik, M., Deng, X., Luk, K. C., Polonskaia, A., Hoffman, A. F., Zipf, K., Boylan, J. F., and Friedman, E. A. (2011) Inactivation of mirk/dyrk1b kinase targets quiescent pancreatic cancer cells, Molecular Cancer Therapeutics 10, 2104-2114).
For orientation: A flow cytometer gives signals particle by particle.

The test system of assay [2] is colon cancer cell line SW620. The assay is described as follows: S-phase fraction of cycling log-phase SW620 cells, BrdU pulse / PI flow cytometry. The conditions noted are these: 1 μM, 24 hours. The format is cell-based, human. The procedure: An experiment was run to determine if inhibition of DYRK1B activity would facilitate cells escaping quiescence and result in surge of proliferating cells, utilizing small molecule inhibitor R. Cycling, log-phase cells from colon cancer cell line SW620 were treated with 1 μM of DYRK1B inhibitor R for 24 hours with 1 hour pulse of BrdU before analysis by flow cytometry after propidium iodine staining of DNA. 38% of the cellular population was detected in the S-phase of the cell cycle. Parallel cultures were treated with the small molecule DYRK1B inhibitor R for 24 hours followed by identical FACS analysis (1-hour BrdU pulse followed by specific mAB-FITC and PI staining).

`COc1ncc2cc(C(=O)Nc3cc(C(=O)NCc4cccc(Cl)c4)ccc3Cl)c(=O)[nH]c2n1` [inhibitor R]: the “percentage of Panc-1 cells in G0 quiescent state” value in assay [1] (Panc-1, 48 h serum deprivation (DMEM+0.2% FBS), then fresh media with 0.25 μM inhibitor, FACS, control 42%) is on record as 27%. For the same compound, the “number of cells in S-phase of cell cycle” value in assay [1] (Panc-1, 48 h serum deprivation, then fresh media with 0.25 μM inhibitor, FACS, control 6%) came to 13%. Further, the “entry of additional Panc-1 cells into quiescence” value in assay [1] (Panc-1, presence of inhibitor) is given as “blocked additional Panc-1 cells from entering quiescence”. Moreover, the “increase of fraction of S-phase cells compared to non-treated control” value in assay [2] came to 29%. Besides, in assay [2] (1 hour BrdU pulse, control 38%), the “S-phase population of cells” value was found to be 49%.
